Reference: the supplement of paper PMC11208160

Assay: recombinant barcode read abundance after kanamycin selection (control-corrected) (log10(CPM+1)); higher = more efficient recombination; sequences stand for … in AGTGCAGAGAAAATCGGCCAGTTTTCTCTGCCTGCAGTCCGCATGCCGT…AGATTTATGCAGCGGACTGCCTTTCTCCCAAAGTGATAAACCGGACAGTATCATGGACCGGTTTTCCCGGTAATCCGTATTTGCAAGGTTGGTTTCACT; site = the 11-nt target
Summary of the method: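 Pooled oligos, each joining a target to an IS621 bridge RNA target-binding loop, were cloned and co-electroporated with a donor plasmid into E. coli. Selective plates carried chloramphenicol/ampicillin/kanamycin and 0.1 mM IPTG, while chloramphenicol/ampicillin LB agar served as control, with two replicates of each. Recombination efficiency rests on averaged, control-corrected counts per million of barcodes at recombinant junctions, shown as log10(CPM+1).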
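Note: IS621 recombinase and bridge RNA in Escherichia coli cells.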

In order of rising “recombinant barcode read abundance (log10)” value:
1. GGTCCATCTTGGGTTCTAACCTGTTGCCT (site GATCCATCTAG)  0
2. GTAAGTACTTGGGTTCTAACCTGTTGCGG (site AGAAGTACTCC)  0
3. GTAACCTCTTGGGTTCTAACCTGTTGCTC (site GTCACCTCTTA)  0.00986
4. GGTCGCCCTTGGGTTCTAACCTGTTGCGT (site TCGTAGACTTA)  0.0116
5. GGTCCAACTTGGGTTCTAACCTGTTGCCT (site GGTCGAACTAG)  0.0176
6. GGTCACCCTTGGGTTCTAACCTGTTGCGG (site GGTGACCCTCC)  0.0199
7. GTAAGCACTTGGGTTCTAACCTGTTGCTT (site GTAAGGACTAA)  0.0207
8. GGTCATCCTTGGGTTCTAACCTGTTGCCT (site GGTCATGCTAG)  0.0238
9. GTAAGAACTTGGGTTCTAACCTGTTGCTT (site GTAAGTACTAA)  0.03
10. GGGTTCCCTTGGGTTCTAACCTGTTGCCT (site GGGTTCGCTAG)  0.031
11. GGTTACACTTGGGTTCTAACCTGTTGCCT (site GGATACACTAG)  0.0395
12. GGTCCATCTTGGGTTCTAACCTGTTGCCT (site GCTCCATCTAG)  0.0427
13. GTAAGCACTTGGGTTCTAACCTGTTGCTT (site GTAAGAACTAA)  0.0561
14. GGTAGGCCTTGGGTTCTAACCTGTTGCTT (site GGTAGGCCTAA)  0.0588
15. GGTCCGGCTTGGGTTCTAACCTGTTGCGG (site GATCCGTCTCC)  0.0623
16. GGTCCTGCTTGGGTTCTAACCTGTTGCCT (site CGTCCTGCTAG)  0.0632
17. GGTCACCCTTGGGTTCTAACCTGTTGCGG (site GGTAACCCTCC)  0.0652
18. GGTCATCCTTGGGTTCTAACCTGTTGCCT (site GGTCATTCTAG)  0.0693
19. GGTCGACCTTGGGTTCTAACCTGTTGCCT (site CGTCGACCTAG)  0.0694
20. GGTCGGGCTTGGGTTCTAACCTGTTGCCT (site GGTCGTGCTAG)  0.0723
21. GGTCGACCTTGGGTTCTAACCTGTTGCCT (site AGTCGACCTAG)  0.0754
22. GTAAGAACTTGGGTTCTAACCTGTTGCTT (site GTAAGCACTAA)  0.0763
23. GGTACTACTTGGGTTCTAACCTGTTGCCA (site ACTACTACTTG)  0.0797
24. GTAAGAACTTGGGTTCTAACCTGTTGCTT (site GTAAGGACTAA)  0.0891
25. GTAACTACTTGGGTTCTAACCTGTTGCTC (site ACGTAACCTAG)  0.0897
26. GGTAGGCCTTGGGTTCTAACCTGTTGCTT (site GGTAGATCTAA)  0.0963
27. GGTTGTTCTTGGGTTCTAACCTGTTGCCT (site TGTTGTTCTAG)  0.0976
28. GGTCCAACTTGGGTTCTAACCTGTTGCCT (site GGTCAAACTAG)  0.1
29. GTAAACACTTGGGTTCTAACCTGTTGCAG (site GTAGACACTCG)  0.113
30. GGTCATCCTTGGGTTCTAACCTGTTGCCT (site GGTCATACTAG)  0.127
31. GGTCGGGCTTGGGTTCTAACCTGTTGCCT (site GGTCGAGCTAG)  0.132
32. GGTATAGCTTGGGTTCTAACCTGTTGCCT (site GGTAAAGCTAG)  0.14
33. GGTACTACTTGGGTTCTAACCTGTTGCCA (site GGTACTACTTG)  0.152
34. GGTACTTCTTGGGTTCTAACCTGTTGCTT (site GGTACTTCTAA)  0.152
35. GGTACTTCTTGGGTTCTAACCTGTTGCTT (site CACCACCCTCC)  0.157
36. GGTCCAACTTGGGTTCTAACCTGTTGCCT (site GGTCTAACTAG)  0.159
37. GGTCACCCTTGGGTTCTAACCTGTTGCGG (site GGTTACCCTCC)  0.16
38. GGTCCATCTTGGGTTCTAACCTGTTGCCT (site GGTCCATCTAG)  0.161
39. GGTCCATCTTGGGTTCTAACCTGTTGCCT (site GTTCCATCTAG)  0.165
40. GGTCCTGCTTGGGTTCTAACCTGTTGCCT (site TGTCCTGCTAG)  0.174
41. GGTCGACCTTGGGTTCTAACCTGTTGCCT (site TGTCGACCTAG)  0.175
42. GTAAGCACTTGGGTTCTAACCTGTTGCTT (site GTAAGCACTAA)  0.18
43. GGTTGTTCTTGGGTTCTAACCTGTTGCCT (site GGTTGTTCTAG)  0.19
44. GGTACGCCTTGGGTTCTAACCTGTTGCGT (site GGTACTCCTAC)  0.213
45. GTAAGCACTTGGGTTCTAACCTGTTGCTT (site GTAAGTACTAA)  0.242
46. GGTACGCCTTGGGTTCTAACCTGTTGCGT (site GGTACGCCTAC)  0.248
47. GGTAAGTCTTGGGTTCTAACCTGTTGCCT (site GGTAAGTCTAG)  0.298
48. GGTAAGTCTTGGGTTCTAACCTGTTGCCT (site GGTAAATCTAG)  0.3
49. GGTCGGGCTTGGGTTCTAACCTGTTGCCT (site GGTCGCGCTAG)  0.315
50. GGTCCAACTTGGGTTCTAACCTGTTGCCT (site GGTCCAACTAG)  0.32
51. GGTACGACTTGGGTTCTAACCTGTTGCAG (site GGTACGCCTAT)  0.336
52. GTAAGCTCTTGGGTTCTAACCTGTTGCCT (site CTAAGCTCTAG)  0.349
53. GGGTTCGCTTGGGTTCTAACCTGTTGCCT (site GGGTTCCCTAG)  0.362
54. GGTCCTGCTTGGGTTCTAACCTGTTGCCT (site AGTCCTGCTAG)  0.366
55. GGTCGGGCTTGGGTTCTAACCTGTTGCCT (site GGTCGGGCTAG)  0.401
56. GTAACTACTTGGGTTCTAACCTGTTGCTC (site GTAACTACTGA)  0.475
57. GTAAACACTTGGGTTCTAACCTGTTGCAG (site GTAAACACTCT)  0.514
58. GTAAGAACTTGGGTTCTAACCTGTTGCTT (site GTAAGAACTAA)  0.629
59. GGTATAGCTTGGGTTCTAACCTGTTGCCT (site GGTATAGCTAG)  0.827
60. GGTCGACCTTGGGTTCTAACCTGTTGCCT (site GGTCGACCTAG)  0.898
61. GTAAGCTCTTGGGTTCTAACCTGTTGCCT (site TTAAGCTCTAG)  0.932
62. GGTGGGTCTTGGGTTCTAACCTGTTGCGT (site GGTGGGTCTAA)  0.97
63. GGTCCTGCTTGGGTTCTAACCTGTTGCCT (site GGTCCTGCTAG)  0.976
64. GGTACGACTTGGGTTCTAACCTGTTGCAG (site GGTACGACTCT)  1.04
65. GGTGGGTCTTGGGTTCTAACCTGTTGCGT (site GGTGGGTCTAG)  1.1
66. GGTCATCCTTGGGTTCTAACCTGTTGCCT (site GGTCATCCTAG)  1.17
67. GGTTACACTTGGGTTCTAACCTGTTGCCT (site GGTTACACTAG)  1.26
68. GTAAGCTCTTGGGTTCTAACCTGTTGCCT (site ATAAGCTCTAG)  1.34
69. GGTCGCCCTTGGGTTCTAACCTGTTGCGT (site GGTCGCCCTAC)  1.43
70. GGTCCGGCTTGGGTTCTAACCTGTTGCGG (site GGTCCGGCTCC)  1.61
71. GGTCACCCTTGGGTTCTAACCTGTTGCGG (site GGTCACCCTCC)  1.75
72. GGGTTCGCTTGGGTTCTAACCTGTTGCCT (site GGGTTCGCTAG)  1.93
73. GGTGGGTCTTGGGTTCTAACCTGTTGCGT (site GGTGGGTCTAT)  1.93
74. GTAACCTCTTGGGTTCTAACCTGTTGCTC (site GTAACCTCTGA)  2.05
75. GTAAGTACTTGGGTTCTAACCTGTTGCGG (site GTAAGTACTCC)  2.06
76. GTAAGCTCTTGGGTTCTAACCTGTTGCCT (site GTAAGCTCTAG)  2.15
77. GGTGGGTCTTGGGTTCTAACCTGTTGCGT (site GGTGGGTCTAC)  3.03
